Results on 27 molecules are retold here after PubChem BioAssay (NCI).

Common to all, as to test: DTP human tumour cell line panel, 48 h
In experiment [1] the test system is UACC-257 melanoma.
The subject of experiment [2] is HT29 colon.
In experiment [3] the test system is MOLT-4 leukemia.
In experiment [4] the test system is OVCAR-3 ovarian.
Experiment [5] has as its system OVCAR-4 ovarian.
Experiment [6] concerns SF-268 CNS.
For experiment [7], the system named is SR leukemia.
In experiment [8] the test system is OVCAR-5 ovarian.
For experiment [9], the system named is MALME-3M melanoma.
For experiment [10], the system named is COLO 205 colon.

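These data come from cells grown in 96-well plates and exposed to compound for 48 hours at five concentrations. TGI marks complete inhibition of growth.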 Where only a bound is given, the exact number is not on record here.

Usually TGI stands for the concentration giving total growth inhibition. Read a low TGI as more potent growth arrest. Take `Cc1cc(C)c2c(=O)n(CC(O)CN3CCN(c4ncccn4)CC3)sc2n1` (centres undefined): the TGI in experiment [1] was 30.4 µM; in experiment [2], 29.6 µM; in [3] it was 22.6 µM; in [4], 34.5 µM; in experiment [5] it was 37.3 µM; in experiment [6] it was 32.6 µM. Moreover, the TGI in experiment [7] turned out to be 36.5 µM; in experiment [8], 31.1 µM; in experiment [9] it was 37.5 µM; in [10] it was 33 µM.
For the molecule `Nc1nc(-c2ccccc2)cc(-c2ccc(F)cc2)c1-c1ccc(Cl)cc1`, the TGI in [1], in [2], in experiment [3], in experiment [4], in [5] and in experiment [6] was more than 100 µM throughout. The TGI in experiment [7], in experiment [8], in experiment [9] and in experiment [10] was more than 100 µM in each case.
Take `CCOC(=O)Cn1c(=O)c2cc(C)cc3c(Cl)nc4c(OC)c(OC)cc1c4c32`: the TGI in [1], in experiment [2], in [3], in experiment [4], in experiment [5] and in [6] was more than 100 µM each time. For the same molecule, the TGI in experiment [7], in [8], in experiment [9] and in experiment [10] was more than 100 µM in each case.
As to `Cc1cc(S(=O)(=O)Nc2nc(N)n(-c3ccccc3)n2)c(S)cc1Cl`, the TGI in experiment [1], in experiment [2], in [3], in experiment [4], in experiment [5] and in experiment [6] was more than 100 µM each time. For the same molecule, the TGI in [7], in experiment [8], in [9] and in experiment [10] was more than 100 µM throughout.
Regarding `O=C(NCCc1ccc(F)cc1)c1cc(/C=C/c2cc(O)ccc2O)ccc1O`, the total growth inhibition concentration (TGI) in experiment [1] is 6.52 µM; in [2], 62.1 µM; in experiment [3], 6.99 µM; in experiment [4] it was 8.44 µM; in [5] it was 12 µM; in experiment [6], 12.2 µM. The TGI in experiment [7] was more than 30 µM; in [8], 22.3 µM; in experiment [9], 5.92 µM; in experiment [10], 13.6 µM.
For the molecule `Nc1c(Cl)ncnc1NCC1(CO)CCC1`, the TGI in experiment [1], in [2], in [3], in experiment [4], in experiment [5] and in [6] was more than 100 µM each time. For the same molecule, the TGI in experiment [7], in experiment [8], in [9] and in experiment [10] was more than 100 µM each time.
Consider `C=C1CN(C(=O)c2cc3cc(OC)c(OC)c(OC)c3[nH]2)c2cc([N+](=O)[O-])ccc21`, for which the TGI in [1], in experiment [2], in experiment [3], in experiment [4], in [5] and in experiment [6] was more than 100 µM each time. Also, the TGI in experiment [7], in [8], in [9] and in experiment [10] was more than 100 µM throughout.
Consider `O=c1[nH]/c(=C/c2cccs2)c(=O)[nH]/c1=C/c1ccc(OCc2ccccc2)cn1`, for which the TGI in experiment [1] is more than 75 µM; in experiment [2] it was more than 100 µM; in [3], more than 35.8 µM; in experiment [4], 0.0382 µM; in [5] it was 45.5 µM; in [6], more than 36.3 µM. In addition, the TGI is 0.587 µM in experiment [7], more than 69.5 µM in experiment [8], 0.726 µM in experiment [9] and 12.5 µM in [10].
`CCOC(=O)C(C(N)=O)c1nc2cc([N+](=O)[O-])ccc2nc1/C=C(\O)c1ccc(C)cc1` (centres undefined): the TGI in experiment [1] was more than 100 µM; in experiment [2], more than 100 µM; in experiment [3] it was 1.39 µM; in experiment [4] it was 31.1 µM; in experiment [5], more than 100 µM; in [6], 35.8 µM. In addition, the TGI is 25.9 µM in [7], more than 100 µM in experiment [8], more than 100 µM in [9] and more than 93.2 µM in experiment [10].
In the case of `COC(=O)/C=C1\C(=O)N(C(C)=O)c2ccccc21`, the TGI in experiment [1] is 22.2 µM; in [2], 20.6 µM; in experiment [3], 31.4 µM; in experiment [4], 23 µM; in [5] it was 17.5 µM; in experiment [6], more than 61.3 µM. Moreover, the TGI in experiment [7] is more than 27.5 µM; in [8], 59.1 µM; in experiment [9], 27.5 µM; in experiment [10], 29.3 µM.
As to `COc1ccc(/C=C/C=C2C(=O)NC(=S)NC2=O)cc1`, the TGI was 22 µM in [1]; 19.6 µM in [2]; 10 µM in experiment [3]; 29 µM in experiment [4]; more than 60.7 µM in [5]; 26.8 µM in experiment [6]. The TGI in [7] was 4.63 µM; in [8], 47.1 µM; in experiment [9], 14.1 µM; in experiment [10] it was 13.5 µM.
With `C=CCCCN1C(=O)C2C3c4ccccc4C(C=O)(c4ccccc43)C2C1=O` (centres undefined), the total growth inhibition concentration (TGI) was 28.9 µM in experiment [1]; 27.5 µM in [2]; 19.4 µM in experiment [3]; 23.4 µM in experiment [4]; 29.1 µM in [5]; 59 µM in experiment [6]. For the same molecule, the TGI in [7] is 18.1 µM; in experiment [8], 45.1 µM; in [9], 26.4 µM; in experiment [10], 25.2 µM.
For the molecule `CN(C)c1ccc(C(=C2C=CC(=[N+](C)C)C=C2)c2c(O)c(S(=O)(=O)[O-])cc3cc(S(=O)(=O)O)ccc23)cc1`, the TGI in experiment [1], in experiment [2], in experiment [3], in [4], in [5] and in experiment [6] was more than 100 µM in each case. In addition, the TGI in [7], in experiment [8], in experiment [9] and in experiment [10] was more than 100 µM throughout.
Regarding `N.N.NCCCCN.O=C([O-])CCl.O=C([O-])CCl.O=C([O-])CCl.O=C([O-])CCl.[Pt+4].[Pt+4]`, the TGI in experiment [1], in experiment [2], in [3], in experiment [4], in experiment [5] and in experiment [6] was more than 50 µM in each case. The TGI in experiment [7], in [8], in experiment [9] and in [10] was more than 50 µM each time.
For `O=C1NC(N2CCOCC2)=N/C1=C\c1ccccc1`, the TGI in experiment [1], in experiment [2], in experiment [3], in experiment [4], in [5] and in experiment [6] was more than 100 µM each time. Besides, the TGI in experiment [7], in experiment [8], in experiment [9] and in [10] was more than 100 µM each time.
`Brc1ccc2c(c1)[C@H]1CCc3c([nH]c4ccccc34)[C@H]1N2`: the TGI in experiment [1] is 25.6 µM; in [2], 27.1 µM; in experiment [3], 16.8 µM; in experiment [4] it was 25.3 µM; in experiment [5], 26.3 µM; in experiment [6], 32.4 µM. Moreover, the TGI in experiment [7] is 33.1 µM; in [8], 27 µM; in experiment [9], 22.8 µM; in experiment [10], 23.6 µM.
For the molecule `Nc1c2c(nc3ccccc13)-c1ccccc1CCC2`, the TGI worked out at 19.4 µM in experiment [1]; 25.9 µM in [2]; 33 µM in [3]; 29.8 µM in experiment [4]; 35.6 µM in [5]; 37.2 µM in [6]. Besides, the TGI in experiment [7] came out at 11 µM; in [8] it was 30 µM; in experiment [9] it was 27.5 µM; in experiment [10], 27.1 µM.
With `CCCCOP(=O)(OCCCC)C(NS(=O)(=O)c1ccccc1)(C(=O)OCC)C(F)(F)F` (centres undefined), the TGI was 79.3 µM in experiment [1]; more than 100 µM in experiment [2]; 58.1 µM in [3]; 59.5 µM in [4]; 94.9 µM in experiment [5]; more than 100 µM in experiment [6]. Moreover, the TGI was more than 100 µM in experiment [7], more than 100 µM in [8], 45.4 µM in experiment [9] and 38.7 µM in [10].
Take `COc1cc2[nH]c(=O)[nH]c2c2c(C)c[nH]c12`: the TGI in [1], in experiment [2], in experiment [3], in experiment [4], in experiment [5] and in [6] was more than 100 µM in each case. The TGI in experiment [7], in experiment [8], in experiment [9] and in experiment [10] was more than 100 µM each time.
For the molecule `CO/C=C(/C(=O)OC)c1ccccc1[C@H]1C[C@@H]1c1ccc(OC)cc1`, the TGI in [1] is 72.8 µM; in experiment [2] it was 38.7 µM; in experiment [3], 74.5 µM; in [4], 49 µM; in [5], 45 µM; in experiment [6], 86.3 µM. The TGI in experiment [7] is 45.4 µM; in experiment [8], more than 100 µM; in [9] it was 46.8 µM; in experiment [10], 25.8 µM.
For the molecule `CSc1nc(NC2CC2)c2c(n1)Sc1nc3ccccc3n1N=C2`, the TGI in experiment [1] is more than 100 µM; in experiment [2] it was more than 100 µM; in experiment [3], more than 100 µM; in [4], 40.3 µM; in experiment [5], 55.8 µM; in [6], 80.7 µM. The TGI in experiment [7] was more than 100 µM; in [8], more than 100 µM; in [9], 50.9 µM; in experiment [10], more than 100 µM.
For the molecule `O=C1CCCc2ccc3c(c21)CC1(Cc2cc4c(cc2C1)CCCC4)C3`, the TGI worked out at 47.8 µM in experiment [1]; 50.9 µM in experiment [2]; 37.4 µM in [3]; 40.3 µM in [4]; 50.9 µM in experiment [5]; 77.1 µM in experiment [6]. In addition, the TGI in experiment [7] amounted to 31.5 µM; in experiment [8] it was 72.3 µM; in [9] it was 35.8 µM; in [10], 31.1 µM.
In the case of `CC(C)=CCC[C@@H](C)c1c(O)c(O)c(C)c2nc3ccccc3nc12`, the TGI in experiment [1] was 12.7 µM; in experiment [2], 17.5 µM; in experiment [3], more than 27.9 µM; in [4], 3.28 µM; in [5] it was 19.9 µM; in experiment [6], 7.22 µM. Further, the TGI was more than 100 µM in experiment [7], 17.6 µM in experiment [8], 7.53 µM in experiment [9] and 18.1 µM in [10].
As to `CCCc1c(OC)c(O)c2c(=O)cc(OC)c3c4c(OC)cc(=O)c5c(O)c(OC)c(CCC)c(c1c23)c54`, the TGI in experiment [1] is more than 100 µM; in [2], 17.9 µM; in experiment [3], 5.69 µM; in [4] it was 13.1 µM; in [5] it was 32.7 µM; in [6], 19.6 µM. Moreover, the TGI in experiment [7] is more than 100 µM; in [8] it was 51.1 µM; in experiment [9], 10.7 µM; in [10], 14.9 µM.
As to `CC12CCC3=C(CSC4=C3CSc3ccccc34)C1=CCCC2=O` (centres undefined), the TGI was more than 100 µM in experiment [2]; more than 100 µM in experiment [3]; more than 100 µM in [4]; 55.6 µM in [5]; more than 100 µM in experiment [6]; more than 100 µM in [7]. Also, the TGI was more than 100 µM in experiment [8], more than 100 µM in experiment [9] and 45.8 µM in experiment [10].
Turning to `O=c1[nH]c(=O)n(COCCO)cc1-c1ccccc1`, the total growth inhibition concentration (TGI) in [1], in [2], in experiment [3], in experiment [4], in experiment [5] and in experiment [6] was more than 100 µM in each case. In addition, the TGI in experiment [7], in [8], in experiment [9] and in [10] was more than 100 µM throughout.
`O=C(O)c1cc(/C=C/c2ccc(O)c(O)c2)ccc1O`: the TGI in [1], in experiment [2], in experiment [3], in experiment [4], in experiment [5] and in experiment [6] was more than 100 µM throughout. The TGI in experiment [7], in [8], in [9] and in experiment [10] was more than 100 µM each time.
